The target in one assay is FGFR1 kinase (Homo sapiens, UniProt P11362). In words: Kinase assay (using Caliper technology). It counts as biochemical. The conditions noted are these: FGFR1 kinase, Caliper; upper bound of bin; read-out: IC50. As to the method: To determine inhibition of FGFR activity, kinase assays were conducted using Caliper technology.
Kinase activity assays were performed in Greiner 384-well low volume plates, with a total reaction volume of 12ul per well. […] The substrate for each assay was a custom peptide with fluorescent tag (13 amino acids in length) the sequence of which was specific for FGFR1 kinase.
Compounds were serially diluted in 5% (v/v) DMSO, before being added to assay plates.
Assay plates were incubated at room temperature for 1.5 h, before the reaction was stopped with the addition of buffer [comprising: 100 mM HEPES—pH7.5, 0.033% Brij-35, 0.22% Caliper Coating Reagent #3, 88mM EDTA, 5% DMSO]. Stopped assay plates were then read using the Caliper LabChip® LC3000 (which uses microfludics to measure a shift in mobility between fluorescent labelled peptide and the FGFR1 kinase—phosphorylated form of this peptide).

For assay [1], the target named is T1, FGFR1 IIIc (Homo sapiens, UniProt P11362).
T1 construct: host or cells: Cos-1
T1 sequence (P11362 22-822): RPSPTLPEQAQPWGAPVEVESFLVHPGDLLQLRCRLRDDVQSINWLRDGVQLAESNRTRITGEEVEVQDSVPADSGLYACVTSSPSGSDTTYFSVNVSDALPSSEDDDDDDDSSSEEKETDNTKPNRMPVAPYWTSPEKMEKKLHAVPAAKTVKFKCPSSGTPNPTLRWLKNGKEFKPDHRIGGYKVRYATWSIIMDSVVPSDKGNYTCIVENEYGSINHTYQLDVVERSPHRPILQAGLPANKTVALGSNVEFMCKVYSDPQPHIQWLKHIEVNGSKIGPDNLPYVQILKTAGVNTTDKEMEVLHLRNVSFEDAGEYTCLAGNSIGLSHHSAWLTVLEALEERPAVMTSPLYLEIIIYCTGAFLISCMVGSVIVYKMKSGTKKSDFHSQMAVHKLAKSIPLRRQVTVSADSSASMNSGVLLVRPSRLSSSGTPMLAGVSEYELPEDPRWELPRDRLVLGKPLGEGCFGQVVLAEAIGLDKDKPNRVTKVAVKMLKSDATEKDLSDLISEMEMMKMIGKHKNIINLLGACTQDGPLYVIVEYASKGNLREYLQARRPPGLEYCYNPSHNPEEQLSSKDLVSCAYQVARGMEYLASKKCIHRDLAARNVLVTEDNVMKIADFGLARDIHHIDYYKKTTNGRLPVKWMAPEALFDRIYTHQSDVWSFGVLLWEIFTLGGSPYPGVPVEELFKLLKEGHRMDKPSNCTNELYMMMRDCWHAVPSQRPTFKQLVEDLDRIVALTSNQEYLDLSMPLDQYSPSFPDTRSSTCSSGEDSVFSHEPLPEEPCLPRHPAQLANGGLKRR
The assay is described as follows: Cell based inhibition of transiently expressed FGFR1 IIIc phosphorylation via use of ECHO technology (Cos-1 cells). The conditions noted are these: Cos-1 cells, phospho-FGFR1, ECHO dosing; upper bound of bin; read-out: IC50. Here is the method: (§1) This assay is designed to detect inhibitors of transiently expressed FGFR1 phosphorylation by antibody staining of fixed cells detected using ArrayScan technology.
To undertake the assay, Cos-1 cells were harvested at 90-95% confluence for cell transfection. For each 96-well plate, 24μl Lipofectamine 2000 was added to 809 ul OptiMEM and incubated at room temperature for 5 minutes. […] Equal volumes of DNA and Lipofectamine 2000 were combined (DNA: Lipid=1:1.2 ratio) and incubated at room temperature for 20 minutes.
The harvested Cos-1 cells are counted using a coulter counter and diluted further with 1% FCS/DMEM to 2.5×10^5 cells/ml. For each 96-well, 8.33 ml cells were required. […] 70 μl of media was aspirated from the assay plate using the Quadra before the plate was transferred onto the ECHO 550. […] Compound transfer to the assay plate on the ECHO 550 was at concentration ranges 1)10 μM, 2) 3 μM, 3) 1 μM, 4) 0.3 μM, 5) 0.1 μM, 6) […].
The plates were gently tapped to mix compound in with the cell media and left to incubate at 37° C. with 5% CO2 for 1 hour.
Media was removed from the wells using vacuum aspiration; cells were fixed by adding 50 μl of 100% methanol to each well and incubated at room temperature for 20 minutes.
(§2) The plates were read on an Arrayscan (Cellomics).

Another assay has as its target T2, human IGF1R (Homo sapiens, UniProt P08069).
T2 construct: expressed in transfected cells; host or cells: R+ cells (R- mouse fibroblasts transfected with human IGF1R)
The assay is described as follows: Inhibition of insulin-like growth factor-1 receptor phosphorylation in R+ cells. To be noted: 30 nM IGF1, read-out: IGF cell class. It counts as cell-based. Here is the method:
This immunofluorescence end point cell assay measures the ability of a test compound to reduce the measured levels of IGF1R phosphorylation after IGF1 stimulation in R^+ cells. […] were derived by transfection of R^− mouse fibroblast cells with human IGF1R.
(+5% CO2) incubator for 30 minutes.
Following the compound treatment, the R^+ cells were stimulated with a final concentration of 30 nM IGF1 (Gropep 1M001) for 20 minutes at 37° C. […] Plates were incubated for 1 hour at room temperature. […] Additionally, in-house antibodies raised against phospho […] were also used at a suitable titre determined for each batch.
The plates were incubated at room temperature for one hour. […] After addition of 100 μl/well PBS the plates were sealed with a black seal.
The Green Fluorescent phospho IGF1R -associated signal in each well was measured using an Acumen Explorer HTS Reader (TTP Labtech Ltd., Cambridge). […] The instrument is a laser-scanning fluorescence microplate cytometer, which samples the well at regular intervals and uses threshold algorithms to identify all fluorescent intensities above the solution background without the need to generate and analyse an image. These fluorescent objects can be quantified and provide a measure of the phospho IGF1R levels in cells. Fluorescence dose response data obtained with each compound was exported into a suitable software package (such as Origin) to perform curve fitting analysis. Phospho-IGF1R levels in response to compound treatment versus stimulated and unstimulated controls were expressed as an IC50 value.

In another assay the test system is Erk phosphorylation. In words: Growth factor (bFGF) stimulated Erk phosphorylation in NIH 3T3 cells. To be noted: Mus musculus, NIH3T3, NIH 3T3 cells, 3 ng/ml bFGF.
Assay [2] has as its target T1, FGFR1 IIIc. The assay is described as follows: Cell based inhibition of transiently expressed FGFR1 IIIc phosphorylation (Cos-1 cells). The conditions noted are these: Cos-1 cells, phospho-FGFR1; upper bound of bin; read-out: IC50. Here is the method:
as §1
To undertake the assay, Cos-1 cells were harvested at 90-95% confluence for cell transfection. For each 96-well plate, 24 ul Lipofectamine 2000 was added to 809 ul OptiMEM and incubated at room temperature for 5 minutes. […] Equal volumes of DNA and Lipofectamine 2000 were combined (DNA: Lipid=1:1.2 ratio) and incubated at room temperature for 20 minutes.
The harvested Cos-1 cells are counted using a coulter counter and diluted further with 1% FCS/DMEM to 2.5×10^5 cells/ml. For each 96-well, 8.33 ml cells were required. […] Media was removed from the wells using vacuum aspiration; cells were fixed by adding 50μl of 100% methanol to each well and incubated at room temperature for 20 minutes.
as §2

Where a name gives a salt, the structure may show the parent alone. Some results are limits rather than exact numbers.

The values that follow come from patent publication US20080004302A1, “Novel Compounds” (ASTRAZENECA AB, priority 2006, published 2008).

Chain of FGFR1 kinase (P11362 22-822): as above
T2 sequence (P08069 31-1367): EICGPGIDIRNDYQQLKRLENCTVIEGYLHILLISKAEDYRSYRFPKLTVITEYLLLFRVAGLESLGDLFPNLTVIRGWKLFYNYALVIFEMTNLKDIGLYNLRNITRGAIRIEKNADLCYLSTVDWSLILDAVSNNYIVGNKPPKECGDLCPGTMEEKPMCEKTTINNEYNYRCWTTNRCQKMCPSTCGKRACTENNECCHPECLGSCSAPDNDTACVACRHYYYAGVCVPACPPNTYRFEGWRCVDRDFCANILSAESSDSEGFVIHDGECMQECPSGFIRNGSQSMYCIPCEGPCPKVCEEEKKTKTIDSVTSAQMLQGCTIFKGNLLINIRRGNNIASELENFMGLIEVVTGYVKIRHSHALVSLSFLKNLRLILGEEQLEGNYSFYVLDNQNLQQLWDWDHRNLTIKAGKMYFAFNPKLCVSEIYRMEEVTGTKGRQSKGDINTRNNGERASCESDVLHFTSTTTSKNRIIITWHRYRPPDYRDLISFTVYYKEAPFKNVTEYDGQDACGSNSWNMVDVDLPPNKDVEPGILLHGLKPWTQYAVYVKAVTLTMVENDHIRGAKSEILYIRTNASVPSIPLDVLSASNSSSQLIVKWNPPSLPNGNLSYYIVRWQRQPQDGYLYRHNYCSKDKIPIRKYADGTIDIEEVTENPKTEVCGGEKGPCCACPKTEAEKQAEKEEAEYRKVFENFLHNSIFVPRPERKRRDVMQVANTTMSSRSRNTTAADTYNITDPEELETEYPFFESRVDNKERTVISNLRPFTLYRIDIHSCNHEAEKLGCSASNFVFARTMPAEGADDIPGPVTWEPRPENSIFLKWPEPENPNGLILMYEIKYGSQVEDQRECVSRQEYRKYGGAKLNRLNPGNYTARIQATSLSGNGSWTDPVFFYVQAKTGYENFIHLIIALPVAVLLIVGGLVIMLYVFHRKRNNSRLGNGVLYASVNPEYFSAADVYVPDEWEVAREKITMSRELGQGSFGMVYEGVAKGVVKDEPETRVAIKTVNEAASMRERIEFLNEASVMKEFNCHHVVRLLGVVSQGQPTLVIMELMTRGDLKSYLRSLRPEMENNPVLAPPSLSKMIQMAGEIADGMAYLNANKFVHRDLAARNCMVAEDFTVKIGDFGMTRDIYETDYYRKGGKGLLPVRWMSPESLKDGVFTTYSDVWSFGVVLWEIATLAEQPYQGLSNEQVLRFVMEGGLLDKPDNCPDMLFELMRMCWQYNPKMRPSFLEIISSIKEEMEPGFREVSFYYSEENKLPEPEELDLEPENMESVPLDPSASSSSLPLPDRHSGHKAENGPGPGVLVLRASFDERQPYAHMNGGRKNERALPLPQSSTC

With `COc1cc(OC)cc(OCc2cc(Nc3ccnc(NCc4cc(C)no4)n3)n[nH]2)c1` [Example 44, N′-[5-[(3,5-Dimethoxyphenoxy)methyl]-2H-pyrazol-3-yl]-N-[(3-methyl1,2-oxazol-5-yl)methyl]pyrimidine-2,4-diamine], the IC50 is under 0.2 µM at FGFR1 kinase, under 1 µM at FGFR1 IIIc [1], over 10 µM at human IGF1R and under 0.2 µM in the assay on Erk phosphorylation.
As for `COc1ccc(OC)c(CCc2cc(Nc3ccnc(NCc4cc(C)no4)n3)n[nH]2)c1` [Example 45, N′-[5-[2-(2,5-dimethoxyphenyl)ethyl]-2H-pyrazol-3-yl]-N-[(3-methyl1,2-oxazol-5-yl)methyl]pyrimidine-2,4-diamine], the IC50 was under 1 µM on FGFR1 kinase and under 10 µM at FGFR1 IIIc [2].
Consider `CNC(=O)c1cc(CNc2nccc(Nc3cc(OC(C)C)n[nH]3)n2)on1` [Example 79, N-methyl-5-[[[4-[(5-propan-2-yloxy-2H-pyrazol-3-yl)amino]pyrimidin-2-yl]amino]methyl]1,2-oxazole-3-carboxamide], for which the values for the IC50 on FGFR1 kinase, at FGFR1 IIIc [1] and with Erk phosphorylation (upper bound of bin) were under 0.2 µM, under 10 µM and under 10 µM, respectively.
For `CC(C)Oc1cc(Nc2ccnc(NCc3cc(-c4ncccn4)no3)n2)n[nH]1` [Example 82, N′-(5-propan-2-yloxy-2H-pyrazol-3-yl)-N-[(^3-pyrimidin-2-yl-1,2-oxazol-5-yl)methyl]pyrimidine-2,4-diamine], the IC50 at FGFR1 kinase was under 0.2 µM; at FGFR1 IIIc [1] it was under 1 µM; in the assay with Erk phosphorylation (upper bound of bin) it was under 1 µM.
As to `CC(C)Oc1cc(Nc2ccnc(NCc3cc(C4CCCO4)no3)n2)[nH]n1` (stereo not shown) [Example 84, N-[[3-(oxolan-2-yl)1,2-oxazol-5-yl]methyl]-N′-(5-propan-2-yloxy-2H-pyrazol-3-yl)pyrimidine-2,4-diamine], the IC50 at FGFR1 kinase is under 0.2 µM; at FGFR1 IIIc [1] it was under 1 µM; in the assay with Erk phosphorylation it was under 0.2 µM.
As to `Cc1cc(CNc2nccc(Nc3cc(OCc4cccc(N5CCOCC5)c4)[nH]n3)n2)on1` [Example 87, N-[(3-methyl1,2-oxazol-5-yl)methyl]-N′-[5-[(3-morpholin-4-ylphenyl)methoxy]-2H-pyrazol-3-yl]pyrimidine-2,4-diamine], the IC50 on FGFR1 kinase was under 10 µM; at human IGF1R, over 10 µM; in the assay on Erk phosphorylation (upper bound of bin) it was under 10 µM.
As for `Cc1cc(CNc2nccc(Nc3cc(OCc4cccc(NC(=O)OC(C)(C)C)c4)[nH]n3)n2)on1` [Example 89, tert-Butyl N-[3-[[5-[[2-[(3-methyl1,2-oxazol-5-yl)methylamino]pyrimidin-4-yl]amino]-1H-pyrazol-3-yl]oxymethyl]phenyl]carbamate], the IC50 on FGFR1 kinase is under 1 µM; at human IGF1R it was 1 to 10 µM; with Erk phosphorylation (upper bound of bin) it was under 1 µM.
With `Cc1cc(CNc2nccc(Nc3cc(OCc4cccc(C(=O)N5CCOCC5)c4)[nH]n3)n2)on1` [Example 90, [3-[[5-[[2-[(3-methyl1,2-oxazol-5-yl)methylamino]pyrimidin-4-yl]amino]-1H-pyrazol-3-yl]oxymethyl]phenyl]-morpholin-4-yl-methanone], the IC50 on FGFR1 kinase is under 10 µM; at human IGF1R it was over 10 µM; in the assay on Erk phosphorylation (upper bound of bin), under 10 µM.
On to `Cc1cc(CNc2nccc(Nc3cc(OCc4cccc(C#N)c4)[nH]n3)n2)on1` [Example 92, 3-[[5-[[2-[(3-methyl1,2-oxazol-5-yl)methylamino]pyrimidin-4-yl]amino]-2H-pyrazol-3-yl]oxymethyl]benzonitrile hydrochloride], for which the IC50 was under 10 µM at FGFR1 kinase, over 10 µM at human IGF1R and under 1 µM in the assay with Erk phosphorylation (upper bound of bin).
The corresponding values for `Cc1cc(CNc2nccc(Nc3cc(OCc4ccc(C(F)(F)F)cc4)[nH]n3)n2)on1` [Example 96, N-[(3-methyl1,2-oxazol-5-yl)methyl]-N′-[5-[[4-(trifluoromethyl)phenyl]methoxy]-1H-pyrazol-3-yl]pyrimidine-2,4-diamine hydrochloride] are under 10 µM, over 10 µM and under 10 µM.
With `Cc1cc(CNc2nccc(Nc3cc(-c4cccs4)[nH]n3)n2)on1` [Example 104, N-[(3-methyl1,2-oxazol-5-yl)methyl]-N′-(5-thiophen-2-yl-1H-pyrazol-3-yl)pyrimidine-2,4-diamine], the results for the IC50 at FGFR1 kinase, at human IGF1R and in the assay with Erk phosphorylation (upper bound of bin) were under 1 µM, 1 to 10 µM and under 1 µM, respectively.
Consider `Cc1cc(CNc2nccc(Nc3cc(CCc4nc(-c5ccccc5)no4)[nH]n3)n2)on1` [Example 106, N-[(3-methyl1,2-oxazol-5-yl)methyl]-N′-[5-[2-(3-phenyl-1,2,4-oxadiazol-5-yl)ethyl]-2H-pyrazol-3-yl]pyrimidine-2,4-diamine], for which the IC50 on FGFR1 kinase was under 1 µM; on human IGF1R, 1 to 10 µM; in the assay on Erk phosphorylation (upper bound of bin), under 1 µM.
On to `Cc1cc(CNc2nccc(Nc3cc(CCc4ccco4)[nH]n3)n2)on1` [Example 107, N′-[5-[2-(2-furyl)ethyl]-2H-pyrazol-3-yl]-N-[(3-methyl1,2-oxazol-5-yl)methyl]pyrimidine-2,4-diamine], for which the IC50 at FGFR1 kinase is under 0.2 µM; on human IGF1R, over 10 µM; in the assay on Erk phosphorylation (upper bound of bin) it was under 1 µM.
The corresponding values for `Cc1cc(CNc2nccc(Nc3cc(C4CCOCC4)[nH]n3)n2)on1` [Example 114, N-[(3-methyl1,2-oxazol-5-yl)methyl]-N′-[5-(oxan-4-yl)-1H-pyrazol-3-yl]pyrimidine-2,4-diamine hydrochloride] are under 10 µM, over 10 µM and under 10 µM.
For `Cc1cc(CNc2nccc(Nc3cc(CCc4cccnc4)[nH]n3)n2)on1` [Example 115, N-[(3-methyl1,2-oxazol-5-yl)methyl]-N′-[5-(2-pyridin-3-ylethyl)-2H-pyrazol-3-yl]pyrimidine-2,4-diamine], in that order: under 1 µM, over 10 µM and under 10 µM.
On to `Cc1cc(CNc2nccc(Nc3cc(CCc4cn(C)cn4)[nH]n3)n2)on1` [Example 119, N′-[5-[2-(1-methylimidazol-4-yl)ethyl]-1H-pyrazol-3-yl]-N-[(3-methyl-1,2-oxazol-5-yl)methyl]pyrimidine-2,4-diamine], for which the IC50 on FGFR1 kinase is under 10 µM; at FGFR1 IIIc [2], under 30 µM.
In the case of `Cc1cc(CNc2nccc(Nc3cc(CCc4ccc(CN(C)C)o4)[nH]n3)n2)on1` [Example 121, N′-[5-[2-[5-(dimethylaminomethyl)-2-furyl]ethyl]-1H-pyrazol-3-yl]-N-[(3-methyl-1,2-oxazol-5-yl)methyl]pyrimidine-2,4-diamine], the IC50 is under 1 µM on FGFR1 kinase and under 30 µM at FGFR1 IIIc [2].
